Results from patent US4950686A, “Anti-mycoplasma agent” (Shionogi & Co., Ltd., priority 1986, dated 1990).

Key:
[1] = Acute toxicity test in chickens; assay type: in vivo, SPF chickens of layer type; conditions: 400 mg/kg or 200 mg/kg once oral, 2 weeks
Protocol: Acute toxicity tests on tropolone L-lysine salt and O-acetyltropolone were performed according to the following method.
The tests had been done on 15 days old SPF chickens of layer type (5 males and 5 females) for 2 weeks. The above two compounds suspended in 5% gum arabic are orally and forcibly administered once at a dose of 400 mg/kg or 200 mg/kg. To a control group is administered 5% gum arabic.

[2] = system: Mycoplasma gallisepticum S6 (standard strain); assay: Mycoplasma gallisepticum air-sac infection method in chicken, strain S6; assay type: in vivo, Mycoplasma gallisepticum; SPF chicken (white leghorn)
Protocol: (§1) (2) Test of Effectiveness Mycoplasma gallisepticum air-sac infection method
(§2) Inoculation: To the right air-sac of 9 days old SPF chicken (a white leghorn) which has abstained from water and feed one day before is inoculated 0.20-0.25 ml/chicken of fresh mycoplasma culture incubated for 24-48 hr and diluted with broth (usually 100 times). The concentration in Table 2 is shown in a unit of mg/ml.
(§3) Medium: Chick PPLO broth supplemented with 15% equine serum (Eiken Kagaku Co., Ltd.)
(§4) Administration: A compound of this invention dissolved or suspended in the following solution is orally and forcibly administered once by a cannula immediately after the infection.
(§5) Anatomization and Isolation of Microorganism: The chickens are anatomized 5 days after the infection, and the right and left air sacs are investigated whether they are attacked with a disease or not. The change caused by the disease is represented in four degrees; -: no change, +: slight, ++: medium and +++: serious. Microorganism is isolated from the right and left air-sacs and the trachea by using a sterilized applicator.
(§6) Judgement: Judgement is done through an index of an air-sac disease and an index of a microorganism-isolation.
(§7) Index of an air-sac-disease: First, indexes in the right and left air-sacs are separately calculated according to the following formula;
(§8) {degree of disease (0-3)×chickens}/anatomized chickens
(§9) and the index is calculated by the following formula;
(§10) (index of right air-sac)×1+(index of left air-sac)×2
(§11) Index of a microorganism isolation:
(§12) P: chickens from the right air-sac of which microorganism is isolated,
(§13) Q: chickens from the trachea of which microorganism is isolated,
(§14) R: chickens from the left air-sac of which microorganism is isolated, and
(§15) S: chickens investigated.

[3] = system: Mycoplasma gallisepticum MR-1 (wild strain, tylosin-resistant); assay: Anti-mycoplasma activity in vitro (MIC, broth dilution), strain MR-1; assay type: cell-based; conditions: Mycoplasmoides gallisepticum, 168 h, Mg MR-1, 37° C., 7 days; read-out: MIC
Protocol: (§16) (1) Anti-mycoplasma activity test in vitro
(§17) MIC values of each of Tropolones were measured on the following strains according to the following method.
(§18) (a) Mycoplasma gallisepticum
MR-1 (wild strain, tylosin-resistant)
(§19) Medium: Chick PPLO broth supplemented with 20% equine serum (Eiken Kagaku Co., Ltd.)
(§20) Method: Broth dilution method
(§21) Inoculum: Culture incubated at 37° C. for 24-48 hr which is diluted with broth to 10^6 CCU/ml immediately before the use.
(§22) To 1.6 ml of the broth is added 0.2 ml of an agent which has been subjected to 2-fold dilution and then added 0.2 ml of inoculum, which is incubated at 37° C. for 7 days.

[4] = system: Mycoplasma gallisepticum S6 (standard strain); assay: Anti-mycoplasma activity in vitro (MIC, broth dilution), strain S6; assay type: cell-based; conditions: Mycoplasmoides gallisepticum, 168 h, Mg S6, 37° C., 7 days; read-out: MIC
Protocol: as §16, §17, §18, §19, §20, §21, §22

[5] = system: Mycoplasma gallisepticum T-7-T (wild strain, tylosin-resistant); assay: Mycoplasma gallisepticum air-sac infection method in chicken, strain T-7-T;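 as to Index of Isolation: index = (P×1 + Q×2 + R×3)/S with range 0 to 6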; assay type: in vivo, Mycoplasma gallisepticum; SPF chicken (white leghorn); conditions: 100 mg/kg × once oral, 10 mg/ml sol. b; for Change of air-sac, left: + (chickens) / Change of air-sac, left: ++ (chickens) / Change of air-sac, left: +++ (chickens) / Change of air-sac, left: - (chickens) / Change of air-sac, right: + (chickens) / Change of air-sac, right: ++ (chickens) / Change of air-sac, right: +++ (chickens) / Change of air-sac, right: - (chickens) / Isolation, L (left air-sac) / Isolation, R (right air-sac) / Isolation, T (trachea) / Mycoplasma Isolated Chickens: inoculum 10^2; for Index of Isolation: inoculum 10^2, range 0-6.0; for Index of Disease: inoculum 10^2, range 0-9.0
Protocol: as §1
(§23) T-7-T (wild strain, tylosin-resistant)
as §2, §3, §4, §5, §6, §7, §8, §9, §10, §11, §12, §13, §14, §15

[6] = system: Mycoplasma gallisepticum T-7-T (wild strain, tylosin-resistant); assay: Anti-mycoplasma activity in vitro (MIC, broth dilution), strain T-7-T; assay type: cell-based; conditions: Mycoplasmoides gallisepticum, 168 h, Mg T-7-T, 37° C., 7 days; read-out: MIC
Protocol: as §16, §17, §18, §23, §19, §20, §21, §22

[7] = system: Mycoplasma hyopneumoniae ST-11 (standard strain); assay: Anti-mycoplasma activity in vitro (MIC, broth dilution), strain ST-11; assay type: cell-based; conditions: Mesomycoplasma hyopneumoniae, Mh ST-11; read-out: MIC
Protocol: as §16, §17
(b) Mycoplasma hyopneumoniae
Strain: ST-11 (standard strain)
Medium: 850 ml of Hanks' solution supplemented with 0.5% lactoalbumin, 50 ml of 25% yeast, 100 ml of equine serum and 4-6 ml of 0.5% phenol red (pH 7.4-7.6)
as §20
Inoculum: Culture which is incubated for 3-4 days and diluted 10 times with the broth if color of the broth becomes yellow then. If it needs over 4 days until color of the broth becomes yellow, it is further subcultured. This is diluted 10 times with the broth to give inoculum.
Assay is done in the same manner as in the above (a).

[8] = 100 mg/kg × once oral, 10 mg/ml sol. b, inoculum 1.2 × 10^6
[9] = 100 mg/kg × once oral, 10 mg/ml sol. b, inoculum 1.2 × 10^6, range 0-6.0
[10] = 100 mg/kg × once oral, 10 mg/ml sol. b, inoculum 1.2 × 10^6, range 0-9.0
[11] = 200 mg/kg × once oral, 20 mg/ml sol. c, inoculum 6.3 × 10^4

CC(=O)Oc1cccccc1=O [Compound 13, O-Acetyltropolone]
0.1: Index of Disease [2, 10]
0.78 µg/mL: MIC [3] | MIC [6]
3: Isolation, T (trachea) [2, 8] | Mycoplasma Isolated Chickens [2, 8]
7: Change of air-sac, right: - (chickens) [2, 8]
a little inferior to the control-group: increase of weight ([1]; vs control group)
0.90: Index of Isolation [5]
1.75: Index of Isolation [2, 9]
5: Change of air-sac, left: - (chickens) [2, 11] | Change of air-sac, right: - (chickens) [2, 11]
1: Change of air-sac, right: + (chickens) [2, 8] | Isolation, L (left air-sac) [5] | Isolation, R (right air-sac) [5]
0.39 µg/mL: MIC [4]
8: Change of air-sac, left: - (chickens) [2, 8] | Change of air-sac, left: - (chickens) [5] | Change of air-sac, right: - (chickens) [5]
0: Change of air-sac, left: + (chickens) [2, 8] | Change of air-sac, left: ++ (chickens) [2, 8] | Change of air-sac, left: +++ (chickens) [2, 8] | Change of air-sac, right: ++ (chickens) [2, 8] | Change of air-sac, right: +++ (chickens) [2, 8] | Change of air-sac, left: + (chickens) [2, 11] | Change of air-sac, left: ++ (chickens) [2, 11] | Change of air-sac, left: +++ (chickens) [2, 11] | Change of air-sac, right: + (chickens) [2, 11] | Change of air-sac, right: ++ (chickens) [2, 11] | Change of air-sac, right: +++ (chickens) [2, 11] | Isolation, L (left air-sac) [2, 11] | Isolation, R (right air-sac) [2, 11] | Mycoplasma Isolated Chickens [2, 11] | Index of Disease ([2]; 200 mg/kg × once oral, 20 mg/ml sol. c, inoculum 6.3 × 10^4, range 0-9.0) | Index of Isolation ([2]; 200 mg/kg × once oral, 20 mg/ml sol. c, inoculum 6.3 × 10^4, trachea ND, range 0-6.0) | Change of air-sac, left: + (chickens) [5] | Change of air-sac, left: ++ (chickens) [5] | Change of air-sac, left: +++ (chickens) [5] | Change of air-sac, right: + (chickens) [5] | Change of air-sac, right: ++ (chickens) [5] | Change of air-sac, right: +++ (chickens) [5] | Index of Disease [5]
2: Isolation, L (left air-sac) [2, 8] | Isolation, R (right air-sac) [2, 8] | Isolation, T (trachea) [5] | Mycoplasma Isolated Chickens [5]
none of chickens died: deaths [1]

CC(C)(C)C(=O)OCOc1cccccc1=O [Compound 19, O-(pivaloyloxymethyl)tropolone]
8: Change of air-sac, left: - (chickens) [2, 8] | Change of air-sac, right: - (chickens) [2, 8] | Change of air-sac, left: - (chickens) [5] | Change of air-sac, right: - (chickens) [5]
2.00: Index of Isolation [5]
0.78 µg/mL: MIC [6]
1: Isolation, L (left air-sac) [2, 8] | Isolation, R (right air-sac) [2, 8] | Isolation, R (right air-sac) [5]
0.1 µg/mL: MIC [7]
5: Isolation, T (trachea) [5] | Mycoplasma Isolated Chickens [5]
0: Change of air-sac, left: + (chickens) [2, 8] | Change of air-sac, left: ++ (chickens) [2, 8] | Change of air-sac, left: +++ (chickens) [2, 8] | Change of air-sac, right: + (chickens) [2, 8] | Change of air-sac, right: ++ (chickens) [2, 8] | Change of air-sac, right: +++ (chickens) [2, 8] | Index of Disease [2, 10] | Change of air-sac, left: + (chickens) [5] | Change of air-sac, left: ++ (chickens) [5] | Change of air-sac, left: +++ (chickens) [5] | Change of air-sac, right: + (chickens) [5] | Change of air-sac, right: ++ (chickens) [5] | Change of air-sac, right: +++ (chickens) [5] | Index of Disease [5]
0.39 µg/mL: MIC [4]
1.01: Index of Isolation [2, 9]
1.56 µg/mL: MIC [3]
2: Isolation, T (trachea) [2, 8] | Mycoplasma Isolated Chickens [2, 8] | Isolation, L (left air-sac) [5]
